Measurements taken from patent US20230172204A1 (BASF SE, priority 2020, published 2023).
Like-named read-outs stand apart in the source and are kept apart here.

Key:
Pyricularia oryzae = assay: microbe, parasite or virus in culture; assay type: cell-based; conditions: for activity at 0.016 ppm: Pyricularia oryzae, 168 h, read-out: Fungal growth (%) PYRIOR
Septoria tritici = assay: microbe, parasite or virus in culture; assay type: cell-based; conditions: for activity at 0.25 ppm: Zymoseptoria tritici, 168 h, read-out: Fungal growth (%) SEPTTR
[1] = test system: Colletotrichum orbiculare; assay: Micro titer plate test against Colletotrichum orbiculare causing anthracnose (COLLLA); assay type: cell-based; conditions: for activity at 0.063 ppm: Colletotrichum orbiculare, 168 h, read-out: Fungal growth (%) COLLLA
[2] = test system: Pyrenophora teres (F129L); assay: Micro titer plate test against Pyrenophora teres causing net blotch on barley (PYRNTE F129L); assay type: cell-based; conditions: 0.25 ppm
Microdochium nivale = assay: Micro titer plate test against Microdochium nivale causing snow mould (MONGNI); assay type: cell-based; conditions: for activity at 0.016 ppm: Microdochium nivale, 168 h, read-out: Fungal growth (%) MONGNI
Alternaria solani (wt) = assay: microbe, parasite or virus in culture; assay type: cell-based
Pyrenophora teres (wt) = assay: Micro titer plate test against Pyrenophora teres causing net blotch on barley (PYRNTE wt); assay type: cell-based; conditions: 168 h, read-out: Fungal growth (%) PYRNTE wt
Cercospora sojina = assay: microbe, parasite or virus in culture; assay type: cell-based; conditions: for activity at 4 ppm: Cercospora sojina, 168 h, read-out: Fungal growth (%) CERCSO
Leptosphaeria nodorum = assay: Micro titer plate test against Leptosphaeria nodorum causing wheat leaf spots (LEPTNO); assay type: cell-based; conditions: for activity at 0.063 ppm: Parastagonospora nodorum, 168 h, read-out: Fungal growth (%) LEPTNO
[3] = test system: Alternaria solani (F129L); assay: Micro titer plate test against Alternaria solani causing early blight (ALTESO F129L); assay type: cell-based
[4] = test system: Phakopsora pachyrhizi (F129L); assay: Protective control of soybean rust on soybeans (PHAKPA P2); assay type: in vivo; conditions: for % PHAKPA (F129L) Disease level P2 at 4 ppm: protective P2, 4 ppm; for % PHAKPA (F129L) Disease level P2 at 4 ppm / % PHAKPA (F129L) Disease level P2 at 16 ppm: soybean rust F129L; for % PHAKPA (F129L) Disease level P2 at 16 ppm: protective P2, 16 ppm
[5] = test system: Phakopsora pachyrhizi (F129L); assay: Protective control of soybean rust on soybeans (PHAKPA P6); assay type: in vivo; conditions: for % PHAKPA (F129L) Disease level P6 at 4 ppm: protective P6, 4 ppm; for % PHAKPA (F129L) Disease level P6 at 4 ppm / % PHAKPA (F129L) Disease level P6 at 16 ppm: soybean rust F129L; for % PHAKPA (F129L) Disease level P6 at 16 ppm: protective P6, 16 ppm
[6] = test system: Phakopsora pachyrhizi (wt); assay type: in vivo; conditions: Qo I-sensitive wt isolate (0% F129L)
[7] = Alternaria solani, 168 h, 0.016 ppm, read-out: Fungal growth (%) ALTESO wt
[8] = Alternaria solani, 168 h, 0.016 ppm, read-out: Fungal growth (%) ALTESO F129L
[9] = P2 protective, % diseased leaf area

SMILES	activity at 0.016 ppm (Pyricularia oryzae) [%]	activity at 0.25 ppm (Septoria tritici) [%]	activity at 0.063 ppm [1] [%]	activity at 0.016 ppm (Microdochium nivale) [%]	activity at 0.016 ppm (Alternaria solani (wt); [7]) [%]	activity at 4 ppm (Cercospora sojina; 4 ppm) [%]	activity at 0.063 ppm (Leptosphaeria nodorum) [%]	activity at 0.25 ppm (Pyrenophora teres (wt)) [%]	activity at 0.016 ppm [3, 8] [%]	further results
CO/N=C(/C(=O)OC)c1cccc(C)c1CO/N=C(/c1cccc(C)c1)C1CC1 [drawing 951]	82	89	93	84						Fungal growth (%) PYRNTE F129L [2]: 87%
CO/N=C(/C(=O)OC)c1cccc(C)c1CO/N=C(\C)c1cccc(OC(F)(F)F)c1 [drawing 934]	100				94	33				activity at 0.025 ppm (Pyrenophora teres (wt)): 84%
CO/N=C(/C(=O)OC)c1cccc(C)c1CO/N=C(\C)c1cccc(OC(F)(F)F)c1 [drawing 940]				86			79	87		Fungal growth (%) PYRNTE F129L [2]: 84%
CO/N=C(/C(=O)OC)c1cccc(C)c1CO/N=C(\OC)c1cccc(C(F)(F)F)c1 [drawing 942]	58					56	100			
CNC(=O)/C(=N/OC)c1cccc(C)c1CO/N=C(\OC)c1cccc(C)c1 [drawing 957]	80	100	81		93				95	
CNC(=O)/C(=N/OC)c1cccc(C)c1CO/N=C(\OC)c1cccc(C(F)(F)F)c1 [drawing 946]	39	77			100		95		87	
CNC(=O)/C(=N/OC)c1cccc(C)c1CO/N=C(\C)c1cccc(C(F)(F)F)c1 [Ex. 8]	13	57		54	56		70			PHAKPA (F129L) Disease level (%) P2 at 1 ppm ([4]; P2 protective, 1 ppm, % diseased leaf area): 6%; PHAKPA (F129L) Disease level (%) P2 at 4 ppm [4, 9]: 1%; % PHAKPA (F129L) Disease level P2 at 4 ppm [4]: 4%; % PHAKPA (F129L) Disease level P2 at 16 ppm [4]: 0%; % PHAKPA (F129L) Disease level P6 at 4 ppm [5]: 5%; % PHAKPA (F129L) Disease level P6 at 16 ppm [5]: 0%; Fungal growth (%) LEPTNO (Leptosphaeria nodorum): 70%; activity at 0.016 ppm ([3]; Alternaria solani, 168 h, read-out: Fungal growth (%) ALTESO F129L, 0.016 ppm): 55%; Fungal growth (%) CERCSO (Cercospora sojina; 4 ppm): 27%; activity at 4 ppm (Cercospora sojina): 27%; Fungal growth (%) MONGNI (Microdochium nivale): 54%
CO/N=C(/C(=O)OC)c1cccc(C)c1CO/N=C(\SC)c1cccc(C)c1 [drawing 953]					67	71	85	59	66	
CO/N=C(/C(=O)OC)c1cccc(C)c1CO/N=C(/c1cccc(Cl)c1)C1CC1 [drawing 961]	83	39	89		81				89	
CNC(=O)/C(=N/OC)c1cccc(C)c1CO/N=C(\SC)c1cccc(Cl)c1 [drawing 968]				100		78		76		Fungal growth (%) PYRNTE F129L [2]: 80%
CO/N=C(/C(=O)OC)c1cccc(C)c1CO/N=C(\C)c1cccc(Cl)c1 [Ex. 153]	50	0	55	75	71	26	55	31	68	PHAKPA (F129L) Disease level (%) P2 at 4 ppm [4, 9]: 19%; PHAKPA (F129L) Disease level (%) P2 at 16 ppm [4, 9]: 5%; % PHAKPA (F129L) Disease level P2 at 4 ppm [4]: 12%; % PHAKPA (F129L) Disease level P2 at 16 ppm [4]: 3%; % PHAKPA (F129L) Disease level P6 at 4 ppm [5]: 22%; % PHAKPA (F129L) Disease level P6 at 16 ppm [5]: 1%
CO/N=C(/C(=O)OC)c1cccc(C)c1CO/N=C(/c1cccc(C)c1)C1CC1 [drawing 955]					100	87	100	78	87	
CNC(=O)/C(=N/OC)c1cccc(C)c1CO/N=C(\C)c1cccc(C)c1 [Ex. 77]										PHAKPA (F129L) Disease level (%) P2 at 4 ppm [4, 9]: 37%; % PHAKPA (F129L) Disease level P2 at 4 ppm [4]: 67%; % PHAKPA (F129L) Disease level P2 at 16 ppm [4]: 4%; PHAKPA (F129L) Disease level (%) P6 at 16 ppm ([5]; P6 protective, 16 ppm, % diseased leaf area): 20%; % PHAKPA (F129L) Disease level P6 at 4 ppm [5]: 40%; % PHAKPA (F129L) Disease level P6 at 16 ppm [5]: 3%; Fungal growth (%) PYRIOR (Pyricularia oryzae; 0.016 ppm): 20%; Fungal growth (%) SEPTTR (Septoria tritici; 0.25 ppm): 49%; Fungal growth (%) COLLLA ([1]; 0.063 ppm): 39%; Fungal growth (%) ALTESO wt (Alternaria solani (wt); 0.016 ppm): 73%; Fungal growth (%) ALTESO F129L ([3]; 0.016 ppm): 69%
CO/N=C(/C(=O)OC)c1cccc(C)c1CO/N=C(\SC)c1cccc(Cl)c1 [drawing 963]				95		62	88	57		
CO/N=C(/C(=O)OC)c1cccc(C)c1CO/N=C(\C)c1cccc(C(F)(F)F)c1 [Ex. 9]	38				73	11	67			PHAKPA (F129L) Disease level (%) P2 at 16 ppm [4, 9]: 23%; % PHAKPA (F129L) Disease level P2 at 4 ppm [4]: 35%; % PHAKPA (F129L) Disease level P2 at 16 ppm [4]: 23%; PHAKPA (F129L) Disease level (%) P6 at 4 ppm ([5]; P6 protective, 4 ppm, % diseased leaf area): 41%; % PHAKPA (F129L) Disease level P6 at 4 ppm [5]: 41%; % PHAKPA (F129L) Disease level P6 at 16 ppm [5]: 4%; activity at 0.025 ppm (Pyrenophora teres (wt)): 44%
CO/N=C(/C(=O)OC)c1cccc(C)c1CO/N=C(\SC)c1cccc(Cl)c1 [drawing 960]	88	39	82		94				100	
CNC(=O)/C(=N/OC)c1cccc(C)c1CO/N=C(\SC)c1cccc(C(F)(F)F)c1 [drawing 944]	49			84		66	93		85	
CO/N=C(/C(=O)OC)c1cccc(C)c1CO/N=C(\C)c1cccc(OC(F)(F)F)c1 [drawing 938]			77							activity at 4 ppm ([3]; Alternaria solani, 168 h, 4 ppm, read-out: Fungal growth (%) ALTESO F129L): 87%
CNC(=O)/C(=N/OC)c1cccc(C)c1CO/N=C(\SC)c1cccc(Cl)c1 [drawing 966]	100	59	82						90	activity at 0.25 ppm (Alternaria solani (wt); Alternaria solani, 168 h, 0.25 ppm, read-out: Fungal growth (%) ALTESO wt): 43%
CO/N=C(/C(=O)OC)c1cccc(C)c1CO/N=C(/c1cccc(Cl)c1)C1CC1 [drawing 964]						61		69		
CO/N=C(/C(=O)OC)c1cccc(C)c1CO/N=C(\SC)c1cccc(C)c1 [drawing 950]	87	61	81	69						
Cc1cccc(-n2nnn(C)c2=O)c1COc1ccn(-c2ccc(Cl)cc2)n1 [drawing 928]	87			97	98				100	
CNC(=O)/C(=N/OC)c1cccc(C)c1CO/N=C(\OC)c1cccc(C(F)(F)F)c1 [drawing 948]				80		60				
Cc1cccc(-n2nnn(C)c2=O)c1COc1ccn(-c2ccc(Cl)cc2)n1 [drawing 930]										PHAKPA P1 DL Disease level (%) ([6]; 0.3 ppm): 78%; PHAKPA P1 DL Disease level (%) ([6]; 1 ppm): 80%; PHAKPA P1 DL Disease level (%) ([6]; 3 ppm): 77%; PHAKPA P1 DL Disease level (%) ([6]; 10 ppm): 48%; PHAKPA P1 DL Disease level (%) ([6]; 30 ppm): 30%; PHAKPA P1 DL Disease level (%) ([6]; 100 ppm): 18%; PHAKPA P1 DL Disease level (%) ([6]; 300 ppm): 5%
CO/N=C(/C(=O)OC)c1cccc(C)c1CO/N=C(\OC)c1cccc(C)c1 [drawing 954]					93	67	65	53	81	
CNC(=O)/C(=N/OC)c1cccc(C)c1CO/N=C(/c1cccc(C)c1)C1CC1 [drawing 958]	81	87	93		89				93	
